Consider 1 compound from patent US6576632B1, “Biaryl compounds useful as anticancer agents” (Pfizer Inc, priority 1999, dated 2003).

For orientation: melting point means the temperature, or range, at which the solid turns liquid. In the case of `O=C(O)c1cccc(-c2cccc(CC(=O)N(Cc3ccccc3)[C@@H]3c4ccccc4CC[C@H]3Cc3ccccc3)c2)c1` (relative stereo) [Example 1, trans-3′-{[Benzyl-(2-benzyl-1,2,3,4-tetrahydro-naphthalen-1-yl)-carbamoyl]-methyl}-biphenyl-3-carboxylic acid], the melting point was in the range of 171 to 172 °C.
